Test results taken from patent US20140187627A1, “USES OF C15-SUBSTITUTED ANDROGRAPHOLIDE DERIVATIVES IN THE PREPARATION OF ANTI-HEPATITIS B VIRUS MEDICAMENT” (ZHENGZHOU UNIVERSITY, priority 2011, published 2014).
Where “and” joins values, the source holds several entries; their conditions need not be identical. Equal values may be shown once.

Assays:
HBV = conditions: cited from earlier work
[1] = test system: HBV surface antigen (HBsAg) of HBV-transfected HepG2.2.15 cell line; experiment: Inhibition of HBsAg secretion in culture supernatant of HepG2.2.15 cells (ELISA), with MTT cytotoxicity for therapeutic index; assay type: cell-based, Hepatitis B virus
Description: HepG2.2.15 cell line, stably transfected with HBV-DNA, was used to evaluate the inhibition of the compounds against the HBV surface antigen (HBsAg) level in the culture supernatant of HepG2.2.15 cell. HepG2.2.15 cells were seeded at a density of 1.25×10^4 cells/well into 48-well plates, 0.5 ml RPMI1640 medium containing 10% fetal bovine serum, 100 unit/ml penicillin, 100 μg/ml streptomycin and 380 μg/ml geneticin (G418) was added to the well. Cells were incubated at 37° C. in a humidified incubator of 5% CO2 for 24 h, and then the culture medium was replaced by fresh medium containing Lamivudine (the positive drug) and compounds of this invention at five concentrations. The culture medium was replaced by a fresh one after 3 days and 6 days incubation, respectively. On d9, the supernatant was collected to determine the HBsAg level and the cells were used to assay the viability by MTT method.
Add 100 μl PBS solution containing 0.5 mg/ml MTT [3-(4,5-dimethylthiazol-2-yl)-2,5diphenyltetrazolium bromide] to the well after removing the supernatant, incubate at 37° C. for 4 h, remove the medium, add […] of DMSO to each well and the plates were shaken for 10 min. The optical density value (A) of each well was read using a PowerWaveX Microplate Scanning Spectrophotometer (Bio-tek Instruments, Inc) at 490 nm. Cells survival rate was calculated. […]

| SMILES | Anti-HBV effect in vitro (HBV) | Therapeutic index (TI = TC50/IC50) ([1]; HepG2.2.15 cells, treated for 9d, TC50 by MTT) | IC50 ([1]; Hepatitis B virus, HepG2.2.15, 216 h, read-out: IC50 against HBsAg secretion) |
| --- | --- | --- | --- |
| C=C1CCC2C(C)(COC(=O)c3cccnc3)C(OC(=O)c3cccnc3)CCC2(C)C1C=CC1=CC(=Cc2ccc(Cl)cc2)OC1=O (stereo not drawn) [15-p-chlorobenzylidene-14-deoxy-11, 12-didehydro-3, 19-dinicotinate-andrographolide] | anti-HBV effect in vitro |  |  |
| Nc1ccn([C@@H]2CS[C@H](CO)O2)c(=O)n1 [Lamivudine] |  | greater than 2 | ~10 µg/mL and ~43.7 µM |
